Measurements published in ChEMBL document CHEMBL3396981, “Synthesis and in vitro biological evaluation of 2-(phenylcarbamoyl)phenyl 4-substituted benzoates” (Bioorg Med Chem, 2015).
Converted amounts (≈) assume the structure as drawn. The source made the active and inactive calls. The rule behind the calls is not given here.

Assays:
[1] = test system: Staphylococcus epidermidis; assay: Antibacterial activity against Staphylococcus epidermidis H 6966/08 after 24 hrs by broth microdilution method; format: functional; settings: H 6966/08, 24 h
[2] = test system: Trichophyton mentagrophytes; assay: Antifungal activity against Trichophyton mentagrophytes 445 after 24 to 48 hrs by broth dilution method; format: functional, organism-based
Trichosporon asahii [3] = assay: Antifungal activity against Trichosporon asahii 1188 after 24 hrs by broth microdilution method; format: functional; settings: Trichosporon asahii, 1188, 24 h
[4] = test system: Mycobacterium tuberculosis; assay: Antimycobacterial activity against Mycobacterium tuberculosis H37Rv 331/88 after 21 days by microdilution method; format: functional; settings: H37Rv 331/88, 504 h
Mycobacterium kansasii [5] = assay: Antimycobacterial activity against Mycobacterium kansasii 6509/96 after 14 days by microdilution method; format: functional; settings: 6509/96, 336 h
Lichtheimia corymbifera = assay: Antifungal activity against Absidia corymbifera 272 after 24 to 48 hrs by broth dilution method; format: functional, organism-based
Candida albicans = assay: Antifungal activity against Candida albicans ATCC 44859 after 24 to 48 hrs by broth dilution method; format: functional, organism-based
Nakaseomyces glabratus = assay: Antifungal activity against Candida glabrata 20/I after 24 to 48 hrs by broth dilution method; format: functional, organism-based
Mycobacterium avium [6] = assay: Antimycobacterial activity against INH,RIF,OFX,EMB-resistant Mycobacterium avium 330/88 after 14 days by microdilution method; format: functional; settings: 330/88, 336 h
Mycobacterium kansasii [7] = assay: Antimycobacterial activity against Mycobacterium kansasii 6509/96 after 21 days by microdilution method; format: functional; settings: 6509/96, 504 h
Staphylococcus aureus [8] = assay: Antibacterial activity against Staphylococcus aureus CCM 4516/08 after 48 hrs by broth microdilution method; format: functional; settings: CCM 4516/08, 48 h
Mycobacterium kansasii [9] = assay: Antimycobacterial activity against Mycobacterium kansasii 235/80 after 7 days by microdilution method; format: functional; settings: 235/80, 168 h
Mycobacterium avium [10] = assay: Antimycobacterial activity against INH,RIF,OFX,EMB-resistant Mycobacterium avium 330/88 after 21 days by microdilution method; format: functional; settings: 330/88, 504 h
Staphylococcus aureus [11] = assay: Antibacterial activity against Staphylococcus aureus CCM 4516/08 after 24 hrs by broth microdilution method; format: functional; settings: CCM 4516/08, 24 h
Pichia kudriavzevii = assay: Antifungal activity against Candida krusei E28 after 24 to 48 hrs by broth dilution method; format: functional, organism-based
Mycobacterium kansasii [12] = assay: Antimycobacterial activity against Mycobacterium kansasii 6509/96 after 7 days by microdilution method; format: functional; settings: 6509/96, 168 h
[13] = Selectivity index, ratio of IC50 for human HepG2 cells to MIC for Staphylococci
HepG2 [14] = assay: Cytotoxicity against human HepG2 cells after 72 hrs by MTT assay; format: cell-based; settings: HepG2, 72 h
Enterococcus sp. [15] = assay: Antibacterial activity against Enterococcus sp. J 14365/08 after 24 hrs by broth microdilution method; format: functional; settings: J 14365/08, 24 h
Aspergillus fumigatus = assay: Antifungal activity against Aspergillus fumigatus 231 after 24 to 48 hrs by broth dilution method; format: functional, organism-based
[16] = test system: Staphylococcus epidermidis; assay: Antibacterial activity against Staphylococcus epidermidis H 6966/08 after 48 hrs by broth microdilution method; format: functional; settings: H 6966/08, 48 h
Staphylococcus aureus [17] = assay: Antibacterial activity against methicillin-resistant Staphylococcus aureus H 5996/08 after 24 hrs by broth microdilution method; format: functional; settings: H 5996/08, 24 h
Candida tropicalis = assay: Antifungal activity against Candida tropicalis 156 after 24 to 48 hrs by broth dilution method; format: functional, organism-based
Mycobacterium kansasii [18] = assay: Antimycobacterial activity against Mycobacterium kansasii 235/80 after 21 days by microdilution method; format: functional; settings: 235/80, 504 h
Enterococcus sp. [19] = assay: Antibacterial activity against Enterococcus sp. J 14365/08 after 48 hrs by broth microdilution method; format: functional; settings: J 14365/08, 48 h
[20] = test system: Mycobacterium tuberculosis; assay: Antimycobacterial activity against Mycobacterium tuberculosis H37Rv 331/88 after 14 days by microdilution method; format: functional; settings: H37Rv 331/88, 336 h
Staphylococcus aureus [21] = assay: Antibacterial activity against methicillin-resistant Staphylococcus aureus H 5996/08 after 48 hrs by broth microdilution method; format: functional; settings: H 5996/08, 48 h
[22] = Selectivity index, ratio of IC50 for human HepG2 cells to MIC for Mycobacterium tuberculosis; format: toxicity, cell-based; settings: read-out: Selectivity Index
[23] = Selectivity index, ratio of IC50 for human HepG2 cells to MIC for atypical mycobacteria
HepG2 [24] = assay: Cytostatic activity against human HepG2 cells after 72 hrs by MTT assay; format: functional, cell-based; settings: HepG2, 72 h
Mycobacterium kansasii [25] = assay: Antimycobacterial activity against Mycobacterium kansasii 235/80 after 14 days by microdilution method; format: functional; settings: 235/80, 336 h
Trichosporon asahii [26] = assay: Antifungal activity against Trichosporon asahii 1188 after 48 hrs by broth microdilution method; format: functional; settings: Trichosporon asahii, 1188, 48 h
[27] = Selectivity index, ratio of IC50 for human HepG2 cells to MIC for Staphylococcus aureus CCM 4516/08
in vitro = settings: human, HepG2 cells
Description: Selectivity index, ratio of IC50 for human HepG2 cells to MIC for Mycobacterium kansasii 6509/96

SMILES: O=C(Oc1ccc(Cl)cc1C(=O)Nc1ccc(Cl)c(Cl)c1)c1ccc(Br)cc1
- MIC [1]: 0.49 µM (≈ 0.245 µg/mL)
- Activity [2]: inactive
- MIC (Trichosporon asahii [3]): 500 µM (≈ 250 µg/mL)
- MIC [4]: 1 µM (≈ 0.5 µg/mL)
- MIC (Mycobacterium kansasii [5]): 4 µM (≈ 2 µg/mL)
- Activity (Lichtheimia corymbifera): inactive
- Activity (Candida albicans): inactive
- Activity (Nakaseomyces glabratus): inactive
- MIC (Mycobacterium avium [6]): 8 µM (≈ 4 µg/mL)
- MIC (Mycobacterium kansasii [7]): 4 µM (≈ 2 µg/mL)
- MIC (Staphylococcus aureus [8]): 0.49 µM (≈ 0.245 µg/mL)
- MIC (Mycobacterium kansasii [9]): 2 µM (≈ 0.999 µg/mL)
- MIC (Mycobacterium avium [10]): 8 µM (≈ 4 µg/mL)
- MIC (Staphylococcus aureus [11]): 0.49 µM (≈ 0.245 µg/mL)
- Activity (Pichia kudriavzevii): inactive
- MIC (Mycobacterium kansasii [12]): 1 µM (≈ 0.5 µg/mL)
- Selectivity Index [13]: >102
- IC50 (HepG2 [14]): > 50 µM
- MIC (Enterococcus sp. [15]): 31.2 µM (≈ 15.6 µg/mL)
- Activity (Aspergillus fumigatus): inactive
- MIC [16]: 0.49 µM (≈ 0.245 µg/mL)
- MIC (Staphylococcus aureus [17]): 0.49 µM (≈ 0.245 µg/mL)
- Activity (Candida tropicalis): inactive
- MIC (Mycobacterium kansasii [18]): 4 µM (≈ 2 µg/mL)
- MIC (Enterococcus sp. [19]): 500 µM (≈ 250 µg/mL)
- MIC [20]: 1 µM (≈ 0.5 µg/mL)
- MIC (Staphylococcus aureus [21]): 0.49 µM (≈ 0.245 µg/mL)
- selectivity ratio [22]: > 50
- Selectivity Index [23]: >6.25
- IC50 (HepG2 [24]): 2.5 µM
- MIC (Mycobacterium kansasii [25]): 4 µM (≈ 2 µg/mL)
- MIC (Trichosporon asahii [26]): > 500 µM

SMILES: CC1(C)S[C@@H]2[C@H](NC(=O)Cc3ccccc3)C(=O)N2[C@H]1C(=O)O [PENICILLIN G]
- MIC [1]: 250 µM (≈ 83.6 µg/mL)
- Selectivity Index [27]: >10204
- MIC (Staphylococcus aureus [8]): 0.98 µM (≈ 0.328 µg/mL)
- MIC (Staphylococcus aureus [11]): 0.98 µM (≈ 0.328 µg/mL)
- IC50 (HepG2 [14]): > 10000 µM
- MIC (Enterococcus sp. [15]): 7.81 µM (≈ 2.61 µg/mL)
- MIC [16]: 250 µM (≈ 83.6 µg/mL)
- MIC (Staphylococcus aureus [17]): 62.5 µM (≈ 20.9 µg/mL)
- MIC (Enterococcus sp. [19]): 15.6 µM (≈ 5.22 µg/mL)
- MIC (Staphylococcus aureus [21]): 125 µM (≈ 41.8 µg/mL)

SMILES: NNC(=O)c1ccncc1 [ISONIAZID]
- MIC [4]: 0.5 µM (≈ 0.0686 µg/mL)
- MIC (Mycobacterium kansasii [5]): 4 µM (≈ 0.549 µg/mL)
- MIC (Mycobacterium avium [6]): > 250 µM
- MIC (Mycobacterium kansasii [7]): 4 µM (≈ 0.549 µg/mL)
- MIC (Mycobacterium kansasii [9]): > 250 µM
- MIC (Mycobacterium avium [10]): > 250 µM
- MIC (Mycobacterium kansasii [12]): 2 µM (≈ 0.274 µg/mL)
- IC50 (HepG2 [14]): > 250 µM
- selectivity ratio (in vitro): ≥ 31.3
- MIC (Mycobacterium kansasii [18]): > 250 µM
- MIC [20]: 0.5 µM (≈ 0.0686 µg/mL)
- selectivity ratio [22]: > 250
- MIC (Mycobacterium kansasii [25]): > 250 µM

SMILES: O=C(Oc1ccc(Cl)cc1C(=O)Nc1ccc(Cl)c(Cl)c1)c1ccc([N+](=O)[O-])cc1
- MIC [1]: 0.49 µM (≈ 0.228 µg/mL)
- Activity [2]: inactive
- MIC (Trichosporon asahii [3]): 31.2 µM (≈ 14.6 µg/mL)
- MIC [4]: 1 µM (≈ 0.466 µg/mL)
- MIC (Mycobacterium kansasii [5]): 4 µM (≈ 1.86 µg/mL)
- Activity (Lichtheimia corymbifera): inactive
- Activity (Candida albicans): inactive
- Activity (Nakaseomyces glabratus): inactive
- MIC (Mycobacterium avium [6]): 8 µM (≈ 3.73 µg/mL)
- MIC (Mycobacterium kansasii [7]): 4 µM (≈ 1.86 µg/mL)
- MIC (Staphylococcus aureus [8]): 0.49 µM (≈ 0.228 µg/mL)
- MIC (Mycobacterium kansasii [9]): 2 µM (≈ 0.931 µg/mL)
- MIC (Mycobacterium avium [10]): 8 µM (≈ 3.73 µg/mL)
- MIC (Staphylococcus aureus [11]): 0.49 µM (≈ 0.228 µg/mL)
- Activity (Pichia kudriavzevii): inactive
- MIC (Mycobacterium kansasii [12]): 2 µM (≈ 0.931 µg/mL)
- Selectivity Index [13]: >102
- IC50 (HepG2 [14]): > 50 µM
- MIC (Enterococcus sp. [15]): 62.5 µM (≈ 29.1 µg/mL)
- Activity (Aspergillus fumigatus): inactive
- MIC [16]: 0.49 µM (≈ 0.228 µg/mL)
- MIC (Staphylococcus aureus [17]): 0.49 µM (≈ 0.228 µg/mL)
- Activity (Candida tropicalis): inactive
- MIC (Mycobacterium kansasii [18]): 4 µM (≈ 1.86 µg/mL)
- MIC (Enterococcus sp. [19]): > 125 µM
- MIC [20]: 0.5 µM (≈ 0.233 µg/mL)
- MIC (Staphylococcus aureus [21]): 0.49 µM (≈ 0.228 µg/mL)
- selectivity ratio [22]: > 50
- Selectivity Index [23]: >6.25
- IC50 (HepG2 [24]): 3.55 µM
- MIC (Mycobacterium kansasii [25]): 4 µM (≈ 1.86 µg/mL)
- MIC (Trichosporon asahii [26]): > 125 µM
